From patent US6984640B1, “Antiparasitic artemisinin derivatives (endoperoxides)” (Bayer Aktiengesellschaft, priority 1998, dated 2006)

Experiments:
[1] = test system: Plasmodium falciparum D6 strain (chloroquine sensitive); assay: In vitro screening against Plasmodium falciparum, 3H-hypoxanthine incorporation, D6 strain; type: cell-based; conditions: for In vitro activity: (IC10) / In vitro activity: IC50 / In vitro activity: IC90: 66 hours incubation
From the text: (§1) Two parasite strains—W2 resistant to chloroquine, and D6 sensitive to chloroquine but resistant to mefloquine were used. In Table IV below, the best compounds should show no cross resistance between the two strains.
(§2) The assay relies on incorporation of radiolabelled hypoxanthine by the parasite and inhibition of incorporation is attributed to activity of known or candidate antimalarial drugs. For each assay, proven antimalarials such as chloroquine, mefloquine, quinine, artemisinin and pyrimethamine were used as controls. The incubation period was 66 hours, and the starting parasitemia was 0.2% with 1% hematocrit. The medium was an RPMI-1640 culture with no folate or p-aminobenzoic acid. Albumax rather than 10% normal heat inactivated human plasma was used as, with Albumax, less protein binding is observed, and compounds elicit slightly higher activities in this model. If a compound was submitted with no prior knowledge of activity, it was dissolved directly in dimethyl sulphoxide (DMSO), and diluted 400 fold with complete culture medium. The unknown compound was started at a maximum concentration of 50,000 ng ml^−1 and sequentially diluted 2-fold for 11 times to give a concentration range of […]. These dilutions were performed automatically by a Biomek 1000 Liquid Handling System in 96-well microtiter plates. The diluted drugs were then transferred to test plates, 200 μl of parasitized erythrocytes were added, and incubated at 37° C. in a controlled environment of 5% CO2, 5% O2 and 90% N2. After 42 hours, 25 μl of ^3H-hypoxanthine was added, and the plates incubated for an additional 24 hours. After 66 hours, the plates were frozen at −70° C. to lyse the red cells, and then thawed and harvested onto glass fiber filter mats in a 96-well harvester. The filter mats were then counted in a scintillation counter. For each drug, the concentration response profile was determined and 50%, 90% and 10% inhibitory concentrations (IC50 IC90 and IC10) were determined by a non-linear logistic dose response analysis program.
(§3) A prescreen format can be used wherein a 3-dilution assay may be used to determine activity at high medium or low concentrations. The concentrations were selected as 50,000, 500 and 50 ng ml^−1. These were performed in duplicate on a 96-well format plate with 14 test compounds and one known (standard) compound per plate. The system was automated with a Biomek diluter for mixing and diluting the drugs, and adding drugs and parasites to a test plate. In the prescreen format, if the ANALYSIS FIELD (AP) has a “<”, then the compound was “very active” and the IC values are most likely to be below the last dilution value (in nanograms/ml), which is listed next to AF. In most cases, these compounds were run again at lower starting concentration to determine the true IC value. If the AF has a “>”, then the IC value is greater than the prescreen dilution value; thus “AF>250” means that the IC value is greater than 250 ng ml^−1 and no further screening is carried out. In such cases, values of 0.00 are entered for IC values.

Neospora caninum = assay: Screening against Neospora caninum cell cultures in vitro (VERO or ED host cells); type: cell-based; set-up: key: 0 = no effect monolayer completely destroyed; 1 = weak effect monolayer partly destroyed, parasite clumps can be seen; 2 = full effect monolayer intact, no tachyzoites observable; T = cytotoxic cells are dead, lysed; conditions: microscopic evaluation 4 days after treatment
Procedure: Screening was conducted in 96-well plates (Falcon 3872). A monolayer of host cells (VERO or ED) were placed on a cell culture plate. Non-infected mono-layers of cells were cultured in two 50 ml tissue culture bottles ([…] cell culture area). The cell layer was detached with trypsin-EDTA (5 ml. Gibco 45300-019) in a CO2-culture cupboard at 37° C. After 10 minutes, most of the cells were detached. The cells were transferred with a 5 ml pipette into a 50 ml centrifuge tube (Greiner, B769331) containing about 1 ml warmed fetal calf serum. After centrifugation for 5 minutes at 1500 rpm (Varifuge 3.0, Heraeus), the liquid was removed and the cell pellet suspended in RPMI medium (100 ml, 95% RPMI 1640, 2% FCS, 1% L-glutamine, 1% sodium hydrogen carbonate, 1% penicillin/streptomycin). The cell suspension was pipetted into six 96-well plates at 150 μl per well. The coated cell culture plates were placed in an incubation cupboard at 37° C. under 5% CO2 for 24 hours. The cells were then infected with Neospora caninum tachyzoites at a concentration of 48,000 tachyzoites per well. This was followed by incubation at 37° C. under 5% CO2 for 24 hours.
The test compounds (0.5-1.5 mg) were weighed into 1.5 ml eppendorf vessels and dissolved in 1 ml dimethyl sulphoxide, corresponding to a dilution of about 1×10^−3 g ml^−1. The medium used for further dilution consisted of 87% RPMI 1640, 10% FCS, 1% L-glutamine, 1% sodium hydrogen carbonate, 1% penicillin/streptomycin. In the first screening, concentrations of […], […] and 10^−7 g ml^−1 were used. The diluted preparations were then transferred to the cell culture plates at a volume of 150 μl per well after 24 hour infection with Neospora caninum. For the first row, untreated medium was used; this row contained infected and uninfected cells as controls. The cell plate was incubated at 37° C. under 5% CO2 for 5 days. Microscopic evaluation was conducted 4 days after treatment and 5 days after infection at a magnification of 25×10 in an inverse microscope according to the following evaluation scheme.

[2] = test system: Plasmodium falciparum W2 strain (chloroquine resistant); assay: In vitro screening against Plasmodium falciparum, 3H-hypoxanthine incorporation, W2 strain; type: cell-based; conditions: for In vitro activity: (IC10) / In vitro activity: IC50 / In vitro activity: IC90: 66 hours incubation
From the text: as §1, §2, §3

Eimeria tenella = assay: Screening against Eimeria tenella cell cultures in vitro (chick kidney cells); type: cell-based; set-up: key: 3 = very active no intact parasites/well; 2 = active 1-6 parasites per well; 1 = weakly active up to 1 intact schizont/optical field of vision; 0 = inactive >1 intact schizont/optical field of vision; T = cytotoxic host cells are dead; conditions: day 5 post infection
Procedure: Cells from kidneys of 19 day old chicks are cultured as monolayers in 96-well plates (Falcon 3872) in a medium of Hanks lactalbumine hydrolysate, 5% fetal calf serum, 1% glutamine and 1% non-essential amino acids. After two days at 42° C. under 5% CO2, the culture was infected with excised sporozoites of Eimeria tenella at about […] per well. Test compounds were dissolved in DKSO and diluted with culture medium to a maximum end concentration of 10 μg ml^−1. The dilution steps were 1:10. On day 5 post infection, the cultures were evaluated under a microscope at 100-fold magnification and the condition of the host cells and the amount of intact schizonts and free merozoites was determined.

Neospora = conditions: administered via drinking water; cited from earlier work
[3] = prescreen 3-dilution assay, 0.00 entered for IC values

SMILES	In vitro activity: (IC10) [1] [ng/mL]	In vitro activity: IC50 [1] [ng/mL]	In vitro activity: IC90 [1] [ng/mL]	Evaluation of effect against Neospora caninum (Neospora caninum; Dose 10^−5 g/ml)	Evaluation of effect against Neospora caninum (Neospora caninum; Dose 10^−6 g/ml)	Evaluation of effect against Neospora caninum (Neospora caninum; Dose 10^−7 g/ml)	In vitro activity: (IC10) [2] [ng/mL]	In vitro activity: IC50 [2] [ng/mL]	In vitro activity: IC90 [2] [ng/mL]	Effectiveness rating against Eimeria tenella (Eimeria tenella; Dose 10^−5 g/ml)	Effectiveness rating against Eimeria tenella (Eimeria tenella; Dose 10^−6 g/ml)	Effectiveness rating against Eimeria tenella (Eimeria tenella; Dose 10^−7 g/ml)	Effectiveness rating against Eimeria tenella (Eimeria tenella; Dose 10^−8 g/ml)	Evaluation of effect against Neospora caninum (Neospora caninum; Dose 10^−8 g/ml)	ANALYSIS FIELD (AF): bound on the IC values in prescreen format [1, 3]	ANALYSIS FIELD (AF): bound on the IC values in prescreen format [2, 3]	efficacy against neosporosis in experimentally infected mice (Neospora)
CC1CCC2C(C)C(Nc3ccc(Br)cc3)OC3OC4(C)CCC1C32OO4 (stereo not drawn) [Example 18]	0.09	0.28	0.82	2	1	0	0.17	0.23	0.33	T	T	1 (1 = weakly active up to 1 intact schizont/optical field of vision)	0 (0 = inactive >1 intact schizont/optical field of vision)				
CC1CCC2C(C)C(Nc3ccc(I)cc3)OC3OC4(C)CCC1C32OO4 (stereo not drawn) [Example 19]	0.19	0.39	0.80	T	0		0.25	0.33	0.43	T	T	1 (1 = weakly active up to 1 intact schizont/optical field of vision)	0 (0 = inactive >1 intact schizont/optical field of vision)				
CC1CCC2C(C)C(Nc3ccc(-c4ccccc4)cc3)OC3OC4(C)CCC1C32OO4 (stereo not drawn) [Example 20]	6.84	9.40	12.93		1	1	2.64	5.81	12.77	T		0 (0 = inactive >1 intact schizont/optical field of vision)		0			
CC1CCC2C(C)C(NCc3cc(C(F)(F)F)cc(C(F)(F)F)c3)OC3OC4(C)CCC1C32OO4 (stereo not drawn) [Example 23]					0					T		0 (0 = inactive >1 intact schizont/optical field of vision)			0.00; 0.00; AF > 250 ng/ml	0.00; 0.00; AF > 250 ng/ml	
CCCNC1OC2OC3(C)CCC4C(C)CCC(C1C)C24OO3 (stereo not drawn) [Example 24]	0.65	1.17	2.10	1	0		0.46	0.77	1.30	2 (2 = active 1-6 parasites per well)	1 (1 = weakly active up to 1 intact schizont/optical field of vision)	0 (0 = inactive >1 intact schizont/optical field of vision)					
CC1CCC2C(C)C(N3CCOCC3)OC3OC4(C)CCC1C32OO4 (stereo not drawn) [Example 25]	0.02	0.09	0.35		1	1	0.07	0.11	0.17	2 (2 = active 1-6 parasites per well)	1 (1 = weakly active up to 1 intact schizont/optical field of vision)	1 (1 = weakly active up to 1 intact schizont/optical field of vision)	0 (0 = inactive >1 intact schizont/optical field of vision)	0			
Nc1ccc(S(=O)(=O)Nc2ncccn2)cc1 [Sulfadiazin]																	effective in experimentally infected mice, only if the treatment was prophylactic
